The values that follow come from PubChem BioAssay AID588407 (The Scripps Research Institute Molecular Screening Center, 2011).

The source made the active and inactive calls. No rule for the calls is given here. Bounds are passed on as bounds.

The experiment addresses Mu-type opioid receptor (Homo sapiens) + Delta-type opioid receptor (Homo sapiens) (UniProt P35372+P41143). The experiment can be described thus: agonists of MOR-DOR heterodimerization, dose response, cell-based, luminescence (AID 588407).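 Also: potency of agonists raising the heterodimer signal.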 The settings on record: cells.

Chain of Mu-type opioid receptor (Homo sapiens) + Delta-type opioid receptor (Homo sapiens) (P35372 whole entry, looked up): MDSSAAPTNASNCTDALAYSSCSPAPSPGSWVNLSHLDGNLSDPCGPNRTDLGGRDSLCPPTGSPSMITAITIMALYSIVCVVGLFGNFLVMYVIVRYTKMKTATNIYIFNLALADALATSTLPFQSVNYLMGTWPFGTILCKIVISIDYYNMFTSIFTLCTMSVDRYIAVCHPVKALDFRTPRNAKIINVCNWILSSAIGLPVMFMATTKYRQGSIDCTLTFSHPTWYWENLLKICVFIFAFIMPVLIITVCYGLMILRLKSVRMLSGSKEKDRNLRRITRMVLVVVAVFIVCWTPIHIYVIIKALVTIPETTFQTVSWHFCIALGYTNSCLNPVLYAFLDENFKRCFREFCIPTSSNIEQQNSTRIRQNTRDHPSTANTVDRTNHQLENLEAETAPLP
Chain of Mu-type opioid receptor (Homo sapiens) + Delta-type opioid receptor (Homo sapiens) (P41143 whole entry, looked up): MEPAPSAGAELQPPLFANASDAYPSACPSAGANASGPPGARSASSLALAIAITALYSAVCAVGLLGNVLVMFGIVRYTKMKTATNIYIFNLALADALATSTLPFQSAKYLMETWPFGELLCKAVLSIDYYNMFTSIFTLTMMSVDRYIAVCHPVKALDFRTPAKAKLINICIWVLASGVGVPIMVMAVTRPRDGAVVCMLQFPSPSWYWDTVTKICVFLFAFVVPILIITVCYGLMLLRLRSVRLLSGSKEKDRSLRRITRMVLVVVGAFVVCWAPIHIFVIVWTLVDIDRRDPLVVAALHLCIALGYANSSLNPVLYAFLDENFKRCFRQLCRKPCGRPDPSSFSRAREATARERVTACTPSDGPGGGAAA

As to `COc1ccc(C(CNC(=O)CCOc2ccccc2)N(C)C)cc1` (stereo unspecified), the EC50 entry is “inactive”.

In the case of `CC(CC(=O)N(CCC1=CCCCC1)c1c(N)n(Cc2ccccc2)c(=O)[nH]c1=O)c1ccccc1` (stereo unspecified), the EC50 was > 92.5 µM (inactive). The value for `Cc1ccc(C2(O)CN(c3ccccc3C)C3=[N+]2CCS3)cc1` (stereo unspecified) was 0.381 µM; that for `O=C(NCCc1ccc(Cl)cc1)C1CCC(CNc2nc(=S)[nH]c3ccccc23)CC1` (stereo unspecified) was > 92.5 µM (inactive); that for `COCCN(C(=O)C1CC(=O)N(Cc2ccccc2)C1)c1nc(-c2ccc([N+](=O)[O-])cc2)cs1` (stereo unspecified) was 5.6 µM. With `Cc1ccc2cc(C(c3nnnn3Cc3ccccc3)N3CCc4ccccc43)c(=O)[nH]c2c1` (stereo unspecified), the EC50 entry is “inactive”. The value for `CCc1ccc(NC(=O)N(CCCN2CCOCC2)Cc2cccs2)cc1` was “inactive”. Consider `CCOC(=O)c1c(C)[nH]c(C(=O)OCC(O)=C(C#N)c2nc3ccccc3[nH]2)c1C`, for which the EC50 was > 92.5 µM (inactive). The value for `CN(C)C(CNC(=O)CSC(=S)N1CCCC1)c1ccccc1` (stereo unspecified) was 0.969 µM. The value for `CCOC(=O)C1(CCCc2ccccc2)CCN(Cc2cnn(C)c2)CC1` was 4.56 µM; that for `Cc1ccc(NC(=O)c2ncn(CCCN[C@H](C)c3cccc4ccccc34)n2)cc1C` was 9.88 µM; that for `CN(C)c1ccc(C(CNC(=O)Cc2cccc3ccccc23)N(C)C)cc1` (stereo unspecified) was “inactive”.

With `CCN(c1nc(N)c(C(=O)N=C(N)N)nc1Cl)C(C)C`, the EC50 is 9.57 µM.

Turning to `CC(=O)C1CCC2C3CC=C4CC(SC(=N)N)CCC4(C)C3CCC12C` (stereo unspecified), the EC50 was 9.58 µM. For `c1ccc(C2(N3CCCCC3)CCCCC2)cc1`, the EC50 was 0.961 µM.

For `COc1cccc(CC2(CO)CCCN(Cc3ccccc3-c3ccco3)C2)c1` (stereo unspecified), the EC50 was 8.88 µM.

As for `COC(=O)C1=C(C)N(CCCC(=O)O)C(=O)NC1c1ccccc1OS(=O)(=O)c1ccc([N+](=O)[O-])cc1` (stereo unspecified), the EC50 was 5.73 µM. The value for `COc1cc(C2C(C#N)=C(N)N(c3sc4c(c3C#N)CCCC4)C3=C2C(=O)CC(C)(C)C3)cc(OC)c1OC` (stereo unspecified) was “inactive”; that for `COc1ccc(NS(=O)(=O)c2ccc(O)c(NC(=O)c3cc4c(C)nn(-c5ccc(F)cc5)c4s3)c2)cc1` was > 92.5 µM (inactive).

Turning to `CN(C)CCCN(C(=O)c1ccc(S(=O)(=O)N2CCc3ccccc3C2)cc1)c1nc2ccc(F)cc2s1`, the EC50 was 1.27 µM. On to `CCOC(=O)C1(c2ccccc2)CCN(CCC(=O)Nc2cccc(Br)c2)CC1`, for which the EC50 is 8.78 µM.

For the compound `Cc1ccc2nc(SC(C(=O)Nc3ccc(F)cc3)c3ccccc3)[nH]c2c1` (stereo unspecified), the EC50 is > 92.5 µM (inactive). The value for `CC(=O)CSc1ccc(-c2nc3cc(C)c(C)cc3[nH]2)cn1` was “inactive”; that for `CN(C)C(CNC(=O)Cc1ccc([N+](=O)[O-])cc1)c1ccccc1` (stereo unspecified) was 7.74 µM; that for `Cc1cc(=O)oc2cc(NC(=O)C3COc4ccccc4O3)ccc12` (stereo unspecified) was “inactive”.

On to `COC(=O)NCC(c1ccc2c(c1)OCO2)N1CCN(c2ccccc2)CC1` (stereo unspecified), for which the EC50 is 1.25 µM. The value for `CCOC(=O)C1(CCOc2ccccc2)CCN(Cc2cccn2-c2cccnc2)CC1` was 1.67 µM; that for `Cc1ccccc1OCC(O)Cn1c(=N)n(Cc2ccccc2)c2ccccc21` (stereo unspecified) was “inactive”. `CCNS(=O)(=O)c1ccc(NC(=O)Nc2ccc3c(c2)OCO3)cc1`: the EC50 is 9.34 µM. Consider `COc1ccccc1CN1CCN(C(CC(C)C)c2nnnn2Cc2cccs2)CC1` (stereo unspecified), for which the EC50 entry was “inactive”.

`COc1ccc(C(CNC(=O)CCc2ccsc2)N(C)C)cc1` (stereo unspecified): the EC50 is 0.2 µM. The value for `CN(C)C(CNC(=O)c1cc2ccccc2o1)c1ccco1` (stereo unspecified) was > 92.5 µM (inactive).

With `CSC(=Nc1ccccc1)N=C(SCc1ccccc1)N(C)C`, the EC50 was 7.33 µM.

On to `O=C(c1sc2ccccc2c1Cl)N(Cc1ccco1)C1CCS(=O)(=O)C1` (stereo unspecified), for which the EC50 result is “inactive”. The result for `CCc1cccc(C)c1NC(=S)NCC(c1cccnc1)N(C)C` (stereo unspecified) reads 3.68 µM; that for `COCC1CCN(Cc2cn(-c3ccccc3F)nc2-c2cc(C)sc2C)CC1`, “inactive”.
